# Test results reported in patent publication US6696303B2, “Identifying substances using cells that express p75NTR” (Trustees of Boston University, priority 1996, dated 2004).
# Assays:
# Bax = Bax level in melanocytes by Western blot with anti-Bax antibody; type: cell-based, human; conditions: for increased Bax level as compared to the 40-1 peptide: 25 μM, four days; for Bax induction: 25 uM, within 4 days, vs 40-1 control fragment or irrelevant protein
# Procedure: To investigate the mechanism of β-amyloid-mediated melanocyte death, Bax levels in melanocytes treated with 25 uM of 1-40 or 25-35 β-amyloid peptides was examined. Within 4 days of treatment, Bax was induced 3 fold in melanocytes stimulated either with the β-amyloid 1-40 or 25-35 fragments as compared to melanocytes treated with the 40-1 control fragment or an irrelevant HPLC purified protein of similar size.
# Melanocytes were maintained as above. Four days after addition of 25 μM of β-amyloid fragments 1-40, 40-1 or 25-35; or 25 μM of HPLC-purified bovine corticotropin releasing factor (CRF) (Bachem Calif.) (MW 4.7 kD) as an additional negative control, cells were extracted in RIPA buffer (50 mM Tris-HCl, 0.15 M NaCl, 0.5% sodium deoxycholate, 1% TRITON®X-100) in the presence of 1 μ/ml aprotinin and 75 μg/ml phenylmethylsulfonyl fluoride (PMSF), sonicated for 1-3 seconds and centrifuged. 40 μg of protein per lane were separated on 12% SDS/PAGE and blotted onto nitrocellulose paper (overnight, 25V). To verify equal loading a duplicate 13% SDS/PAGE was performed and stained with Coomasie Blue R250 stain. Blots were incubated with anti-Bax antibody (1:1000 dilution) (primary antibody), followed by horseradish peroxidase-conjugated goat anti-rabbit IgG (secondary antibody) (1:500 dilution) (Bio-Rad Laboratories, Hercules, Calif.). Bound antibodies were detected using enhanced chemiluminescence kit (Amersham Corp.). Autoradiograms were scanned into a Macintosh II is computer using the Of to TM program (Light source Computer Images, Inc.). Scan analysis was performed with manual definition of bands using Scan Analysis TM 68000 program (Biosoft, Cambridge, UK).
# p75^NTR [1] = assay: UV irradiated melanocytes treated with anti p75NTR antisense oligonucleotides; type: cell-based
# Procedure: Melanocytes were UV irradiated with 25 mJ/cm^2 and then supplemented either with 10 μM anti p75^NTR anti sense phosphothioate oligonucleotides ([…] SEQ ID NO.: 5) directed against the 3′ end of the p75^NTR coding region, or the same concentration of sense oligonucleotides as a negative control.
# Immunohistochemical analysis confirmed that p75^NTR was not expressed in cells treated with anti-p75^NTR anti-sense oligonucleotides, but was expressed in the sense treated cells. Within 24 hours after irradiation; the following was observed the following were observed: […]
# melanocytes = assay: NGF supplementation of β-amyloid-treated melanocytes; type: cell-based, human; conditions: for percent of live cells (spread): 48 hours
# Procedure: Melanocytes were maintained as above in hormone supplemented medium lacking hydrocortisone. Cells were supplemented with 25 μM of β-amyloid 1-40 in the presence of 50 ng/ml NGS or diluent.
# Photographs of representative fields were obtained and the percent of the live cells (spread) was determined 48 hours after addition of β-amyloid and NFG or β-amyloid and diluent.
# At least 400 cells were counted in each condition.
# p75^NTR [2] = target: T1, p75^NTR (Homo sapiens, UniProt P08138); assay: competition for 125I labeled β-amyloid 1-40 binding on p75NTR-NIH 3T3 cells; conditions: NGF 100 ng/ml; 2 hours at 4° C.
# T1 construct: expressed in transfected cells; host or cells: NIH 3T3 fibroblasts, permanently transfected (p75NTR-NIH 3T3 cells)
# T1 sequence (P08138 29-427): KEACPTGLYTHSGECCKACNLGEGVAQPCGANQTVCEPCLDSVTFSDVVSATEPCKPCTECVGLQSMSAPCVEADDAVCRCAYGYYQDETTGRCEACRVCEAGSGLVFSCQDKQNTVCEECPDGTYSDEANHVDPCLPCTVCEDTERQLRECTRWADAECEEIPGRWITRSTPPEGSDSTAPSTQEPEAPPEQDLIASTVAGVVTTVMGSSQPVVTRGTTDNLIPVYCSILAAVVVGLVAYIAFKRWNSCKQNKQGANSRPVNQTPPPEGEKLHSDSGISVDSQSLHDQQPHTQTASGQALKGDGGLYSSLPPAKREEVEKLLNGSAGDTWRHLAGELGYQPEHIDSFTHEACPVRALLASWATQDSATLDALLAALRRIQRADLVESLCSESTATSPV
# From the text: After rinsing in PBS, cells were lysed in 1N NaOH and equal amounts of protein from cell lysates were subject to counting.
# […] (SEQ ID NO: 4). Lysates from 1.5×10^5 cells were subjected to counting.
# p75^NTR [3] = target: T1, p75^NTR; assay: receptor affinity for p75NTR; type: binding
# p75^NTR [4] = target: T1, p75^NTR; conditions: lysine at position 34 replaced by alanine; vs NGF; cited from earlier work
# p75^NTR 3T3 cells = assay: cell yield of p75NTR 3T3 cells with β-amyloid and cyclic peptide; type: cell-based
# Procedure: p75^NTR 3T3 cells were maintained in serum free medium supplemented with 200 nM β-amyloid 1-40, 200 nM cyclic peptide […], (SEQ ID NO: 4) 20 nM β-amyloid 1-40 and 200 nM cyclic peptide or diluent alone.
# normal human melanocytes = assay: melanocyte cell yield and morphology after β-amyloid supplementation; type: cell-based
# Procedure: To determine the effect of β-amyloid on normal human melanocytes, cultures were supplemented with increasing concentrations (0.025-50 uM) of HPLC-purified β-amyloid fragment corresponding to amino acids 1-40. A peptide containing the first 40 amino acids synthesized in reverse order (40-1) was used as a negative control.
# Melanocytes were maintained in serum free Medium 199 (Gibco BRL Gaithersburg, Md.) supplemented with epidermal growth factor (10 ng/ml) (Collaborative Research), insulin (10 μg/ml) (Sigma), triiodothyronine (10^−9 M) (Collaborative Research), transferrin (10 μg/ml) (Sigma), hydrocortisone (1.4×10^−6 M) (Calbiochem), cholera toxin (10^−9 M) (Calbiochem) and basic fibroblast growth factor (basic FGF) (10 ng/ml) (Collaborative Research). Two days after plating cells were supplemented with increasing concentrations of β-amyloid 1-40 or the control peptide 40-1 (0-50 μM) (Bachem Calif., Torrance, Calif.).
# p75^NTR [5] = target: T1, p75^NTR; assay: cross linking of 125I β-amyloid 1-40 and immunoprecipitation with anti p75NTR antibodies; type: binding; conditions: p75NTR-NIH 3T3 cells, disuccinimidyl suberate cross linking
# Procedure: p75^NTR-NIH 3T3 cells were maintain in DMEM supplemented with 10% FBS in the presence of penicillin (45 ng/ml), streptomycin (68 ng/ml), and hygromycin B (17.5 ng/ml). At 80% confluence cells were lifted from the dish with EDTA and incubated in suspension with 5 uCi ^125I labeled β-amyloid 1-40 at 4° C. for 1 hour in DMEM. After incubation, 1 mM of disuccinimidyl suberate was added for 30 minutes. Following centrifugation cells were lysed with RIPA buffer (50 mM Tris HCl, pH 8.0, 0.15 M NaCl 0.5% sodium deoxycholate 4, 5 mM MgC2, 1% TRITON®X-100, 1 mM phenylmethylsulfonylfluoride, and 1 μg/ml aprotinin), sonicated for 1-3 seconds and immunoprecipitated with anti p75^NTR antibodies (mouse monoclonal IgGl, Cedarlane Laboratories Ltd., Ontario, Canada) or mouse IgG as control for 16 hours at 4° C. in the presence of 15 ul of protein G plus protein A agarose and 1M NaCl adjusted to pH 8.0. After several washes with 20 mM Tris HCl, pH 8.0, 1M NaCl, 5mM MgCl2, 0.2% TRITON®X-100 and 1 mM PMSF, immunoprecipitates were separated over 8% PAGE and subjected to autoradiography. A band of appropriate molecular weight was present only in lysates immunoprecipitated with anti p75^NTR antibodies and not lysates immunoprecipitated with irrelevant mouse IgG.
# [6] = NGF supplementation, preliminary data
# [7] = ≧25 μM, compared to control cultures
substance,measurement,setting,value
25-35: β-amyloid peptide fragment of amino acid residues 25-35 (GSNKGAIIGLM),increased Bax level as compared to the 40-1 peptide,Bax,160%
same,Bax induction,Bax,3 fold
"CTCCCACTCGTCATTCGAC (all phosphorothioate, sugars by position and methylation of C not given here) [anti-sense oligonucleotides, anti p75NTR anti sense phosphothioate oligonucleotides directed against the 3′ end of the p75NTR coding region]",p75NTR expression (immunohistochemical analysis),"p75^NTR [1]; 10 μM oligonucleotide, melanocytes UV irradiated with 25 mJ/cm^2",not expressed
same,appearance of cells within 24 hours after irradiation,p75^NTR [1]; diluent instead of NGF,appear as healthy as cells provided NGF lacking p75^NTR
same,appearance of cells within 24 hours after irradiation,p75^NTR [1]; with 50 ng/ml NGF,do not appear as healthy or numerous as cells expressing both receptors in the presence of NGF
"NGF: Nerve growth factor, physiologic ligand for p75NTR",percent of live cells (spread),melanocytes; 25 μM β-amyloid 1-40 and 50 ng/ml NGF,96±1.4%
same,cell yields of β-amyloid-supplemented melanocytes,"melanocytes; NGF added, within 3-5 days",enhanced cell yields
same,Bcl-2 levels,melanocytes; [6],increases Bcl-2 levels
same,β-amyloid-induced Bax upregulation,melanocytes; [6],decreases the β-amyloid-induced Bax upregulation
same,maximum inhibition of 125I labeled β-amyloid binding,p75^NTR [2],38%
same,appearance of cells within 24 hours after irradiation,p75^NTR [1]; with 50 ng/ml NGF,appear healthy
same,higher receptor affinity than β-amyloid,p75^NTR [3],2-3 fold
mutant NGF: NGF in which lysine (K) at position 34 is replaced by alanine (A),lower affinity of binding to p75NTR,p75^NTR [4],50%
β-amyloid 1-40: HPLC-purified β-amyloid fragment corresponding to amino acids 1-40,percent of live cells (spread),melanocytes; 25 μM β-amyloid 1-40 and diluent,77±8.5%
same,cell yield compared to all other cultures,"p75^NTR 3T3 cells; 200 nM, serum free medium, up to 120 hours",prominent decrease of cell yield
same,reduction of cell yields,p75^NTR 3T3 cells; β-amyloid 200 nM,~60%
same,effect on cell yield,"normal human melanocytes; 0-50 μM, three to five days after addition",dose dependent decrease of cell yield
same,decrease in cell yield,"normal human melanocytes; 25-30 uM, compared to cell yield before β-amyloid addition (100%)",59%±17%
same,dendrite outgrowth,normal human melanocytes; low concentrations (≦1 μM),extensive outgrowth of dendrites
same,decrease of melanocyte yield,"normal human melanocytes; within 3-5 days, total of four experiments",> 50%
same,proportion of apoptotic cells,normal human melanocytes; [7],significantly increases the proportion of apoptotic cells
same,binding to p75NTR (autoradiogram of immunoprecipitates),p75^NTR [5],protein band of 75-80 kD in size only in lysates immunoprecipitated with anti p75^NTR antibodies
same,increased Bax level as compared to the 40-1 peptide,Bax,270%
same,Bax induction,Bax,3 fold
same,upregulation of Bax protein expression,Bax; [7],approximately three fold
